What follows are compounds tested on HCV 1b-377-neo replicon cells (assay: HCV replicon assay, HCV 1b-377-neo replicon cells (1b FRET)). Settings: HCV 1b-377-neo replicon cells; HCV 1b genotype; read-out: EC50 range against HCV 1b (Table 2, Range).
Format: cell-based, Hepatitis C virus genotype 1b
How it was run: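 Compounds tested in HCV genotype 1b-377-neo replicon cells with a FRET read-out. Cells resistant to a reference NS5A inhibitor through a Y2065H NS5A mutation were run alongside wild-type cells.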
With `O=C(OCc1ccccc1)N1CCN(C(C(=O)N2CCC[C@H]2c2ncc(-c3ccc(-c4ccc(-c5c[nH]c([C@@H]6CCCN6C(=O)[C@H]6CCCO6)n5)cc4)cc3)[nH]2)c2ccccc2)CC1` (single isomer, unassigned) [Example 103-5] the EC50 was 0.001 to 0.999 nM.
Compound `CN(C)[C@@H](C(=O)N1CCC[C@H]1c1nc(-c2ccc(-c3ccc(-c4cn(C)c([C@@H]5CCCN5C(=O)[C@@H](c5ccccc5)N(C)C)n4)cc3)cc2)cn1C)c1ccccc1` (single isomer, unassigned) [151 isomer 2] has an EC50 of 100 to 999 nM.

Same assay, conditions: Hepatitis C virus, HCV 1b-377-neo replicon cells; HCV 1b genotype; read-out: EC50 range against HCV 1b (Table 2, Range)
Compound `COC(=O)N[C@@H](C)C(=O)N1CCC[C@H]1c1ncc(-c2ccc(-c3ccc(-c4cnc([C@@H]5CCCN5C(=O)[C@H](Cc5ccncc5)NC(=O)OC)[nH]4)cc3)cc2)[nH]1` [cj-90, methyl ((1S)-2-((2S)-2-(5-(4′-(2-((2S)-1-(N-(methoxycarbonyl)-L-alanyl)-2-pyrrolidinyl)-1H-imidazol-5-yl)-4-biphenylyl)-1H-imidazol-2-yl)-1-pyrrolidinyl)-2-oxo-1-(4-pyridinylmethyl)ethyl)carbamate] has an EC50 of 0.001 to 0.999 nM.
In the case of `COC(=O)N[C@@H](Cc1cscn1)C(=O)N1CCC[C@H]1c1ncc(-c2ccc(-c3ccc(-c4cnc([C@@H]5CCCN5C(=O)[C@@H](NC(=O)OC)C(C)C)[nH]4)cc3)cc2)[nH]1` [cj-79, methyl ((1S)-1-(((2S)-2-(5-(4′-(2-((2S)-1-((2S)-2-((methoxycarbonyl)amino)-3-(1,3-thiazol-4-yl)propanoyl)-2-pyrrolidinyl)-1H-imidazol-5-yl)-4-biphenylyl)-1H-imidazol-2-yl)-1-pyrrolidinyl)carbonyl)-2-methylpropyl)carbamate], the EC50 is reported as 0.001 to 0.999 nM.
Work on `COC(=O)N[C@@H](C(=O)N1CCC[C@H]1c1ncc(-c2ccc(-c3ccc(-c4cnc([C@@H]5CCCN5C(=O)[C@@](C)(O)c5ccccc5F)[nH]4)cc3)cc2)[nH]1)c1ccccc1` [Example 84-2, methyl ((1R)-2-((2S)-2-(5-(4′-(2-((2S)-1-((2S)-2-(2-fluorophenyl)-2-hydroxypropanoyl)-2-pyrrolidinyl)-1H-imidazol-5-yl)-4-biphenylyl)-1H-imidazol-2-yl)-1-pyrrolidinyl)-2-oxo-1-phenylethyl)carbamate] yielded an EC50 of 0.001 to 0.999 nM.
`CCN(CC)[C@@H](C(=O)N1CCC[C@H]1c1ncc(-c2ccc(-c3ccc(-c4cnc([C@@H]5CCCN5C(=O)[C@H](COC)NC(=O)OC)[nH]4)cc3)cc2)[nH]1)c1ccccc1` [Example M61, methyl ((1S)-2-((2S)-2-(5-(4′-(2-((2S)-1-((2R)-2-(diethylamino)-2-phenylacetyl)-2-pyrrolidinyl)-1H-imidazol-5-yl)-4-biphenylyl)-1H-imidazol-2-yl)-1-pyrrolidinyl)-1-(methoxymethyl)-2-oxoethyl)carbamate] was tested, and the EC50 was 1 to 99 nM.
In the case of `COC(=O)N[C@@H](C(=O)N1CCC[C@H]1c1ncc(-c2ccc(-c3ccc(-c4cnc([C@@H]5CCCN5C(=O)Cc5cc(C)[nH]n5)[nH]4)cc3)cc2)[nH]1)c1ccccc1` [Example 84-19, methyl ((1R)-2-((2S)-2-(5-(4′-(2-((2S)-1-((5-methyl-1H-pyrazol-3-yl)acetyl)-2-pyrrolidinyl)-1H-imidazol-5-yl)-4-biphenylyl)-1H-imidazol-2-yl)-1-pyrrolidinyl)-2-oxo-1-phenylethyl)carbamate], the EC50 is reported as 1 to 99 nM.
`COCC[C@H](NC(=O)OC)C(=O)N1CCC[C@H]1c1ncc(-c2ccc(-c3ccc(-c4cnc([C@@H]5CCCN5C(=O)[C@H]5CCC[C@@H]5NC(=O)OC)[nH]4)cc3)cc2)[nH]1` [cj-122, methyl ((1S,2S)-2-(((2S)-2-(5-(4′-(2-((2S)-1-(N-(methoxycarbonyl)-O-methyl-L-homoseryl)-2-pyrrolidinyl)-1H-imidazol-5-yl)-4-biphenylyl)-1H-imidazol-2-yl)-1-pyrrolidinyl)carbonyl)cyclopentyl)carbamate] was tested, and the EC50 was 0.001 to 0.999 nM.
`COC(=O)N[C@@H](C(=O)N1CCC[C@H]1c1ncc(-c2ccc(-c3ccc(-c4cnc([C@@H]5CCCN5C(=O)[C@@H]5CCCO5)[nH]4)cc3C)cc2)[nH]1)c1ccccc1` [Example 128, methyl ((1R)-2-((2S)-2-(5-(2′-methyl-4′-(2-((2S)-1-((2S)-tetrahydro-2-furanylcarbonyl)-2-pyrrolidinyl)-1H-imidazol-5-yl)-4-biphenylyl)-1H-imidazol-2-yl)-1-pyrrolidinyl)-2-oxo-1-phenylethyl)carbamate] gave an EC50 of 0.001 to 0.999 nM.
Work on `CN1CCC[C@H]1C(=O)N[C@@H](C(=O)N1CCC[C@H]1c1ncc(-c2ccc(-c3ccc(-c4cnc([C@@H]5CCCN5C(=O)[C@@H]5CCCO5)[nH]4)cc3)cc2)[nH]1)c1ccccc1` [Example 113, 1-methyl-N-((1R)-2-oxo-1-phenyl-2-((2S)-2-(5-(4′-(2-((2S)-1-((2S)-tetrahydro-2-furanylcarbonyl)-2-pyrrolidinyl)-1H-imidazol-5-yl)-4-biphenylyl)-1H-imidazol-2-yl)-1-pyrrolidinyl)ethyl)-L-prolinamide] yielded an EC50 of 0.001 to 0.999 nM.
`COC(=O)N[C@@H](Cn1cccn1)C(=O)N1CCC[C@H]1c1ncc(-c2ccc(-c3ccc(-c4cnc([C@@H]5CCCN5C(=O)[C@@H](NC(=O)OC)C(C)C)[nH]4)cc3)cc2)[nH]1` [cj-38, methyl ((1S)-1-(((2S)-2-(5-(4′-(2-((2S)-1-((2S)-2-((methoxycarbonyl)amino)-3-(1H-pyrazol-1-yl)propanoyl)-2-pyrrolidinyl)-1H-imidazol-5-yl)-4-biphenylyl)-1H-imidazol-2-yl)-1-pyrrolidinyl)carbonyl)-2-methylpropyl)carbamate] showed an EC50 of 0.001 to 0.999 nM.
`CCN(CC)[C@@H](C(=O)N1CCC[C@H]1c1ncc(-c2ccc(-c3ccc(-c4cnc([C@@H]5CCCN5C(=O)[C@@H](NC(=O)OC)C(C)(C)C)[nH]4)cc3)cc2)[nH]1)c1ccccc1` [Example M59, methyl ((1S)-1-(((2S)-2-(5-(4′-(2-((2S)-1-((2R)-2-(diethylamino)-2-phenylacetyl)-2-pyrrolidinyl)-1H-imidazol-5-yl)-4-biphenylyl)-1H-imidazol-2-yl)-1-pyrrolidinyl)carbonyl)-2,2-dimethylpropyl)carbamate] showed an EC50 of 1 to 99 nM.
Work on `CCN(CC)[C@@H](C(=O)N1CCC[C@H]1c1ncc(-c2ccc(-c3ccc(-c4[nH]c([C@@H]5CCCN5C(=O)[C@H](C)NC(=O)OC)nc4C(F)(F)F)cc3)cc2)[nH]1)c1ccccc1` [Example J45, methyl ((1S)-2-((2S)-2-(5-(4′-(2-((2S)-1-((2R)-2-(diethylamino)-2-phenylacetyl)-2-pyrrolidinyl)-1H-imidazol-5-yl)-4-biphenylyl)-4-(trifluoromethyl)-1H-imidazol-2-yl)-1-pyrrolidinyl)-1-methyl-2-oxoethyl)carbamate] yielded an EC50 of 0.001 to 0.999 nM.
`COC(=O)N[C@H](C(=O)N1CCC[C@H]1c1nc(-c2ccc(-c3ccc(-c4c[nH]c([C@@H]5CCCN5C(=O)[C@H](NC5CCOCC5)C(C)C)n4)cc3)cc2)c[nH]1)C(C)C` [Example F52, methyl ((1S)-2-methyl-1-(((2S)-2-(4-(4′-(2-((2S)-1-(N-(tetrahydro-2H-pyran-4-yl)-D-valyl)-2-pyrrolidinyl)-1H-imidazol-4-yl)-4-biphenylyl)-1H-imidazol-2-yl)-1-pyrrolidinyl)carbonyl)propyl)carbamate] gave an EC50 of 0.001 to 0.999 nM.
Compound `COC(=O)N[C@@H](C)C(=O)N1CCC[C@H]1c1ncc(-c2ccc(-c3ccc(-c4cnc([C@@H]5CCCN5C(=O)[C@H](Cc5cncn5C)NC(=O)OC)[nH]4)cc3)cc2)[nH]1` [cj-45, methyl ((1S)-2-((2S)-2-(5-(4′-(2-((2S)-1-(N-(methoxycarbonyl)-L-alanyl)-2-pyrrolidinyl)-1H-imidazol-5-yl)-4-biphenylyl)-1H-imidazol-2-yl)-1-pyrrolidinyl)-1-((1-methyl-1H-imidazol-5-yl)methyl)-2-oxoethyl)carbamate] has an EC50 of 0.001 to 0.999 nM.
With `CCNC(=O)N[C@@H](C(=O)N1CCC[C@H]1c1ncc(-c2ccc(-c3ccc(-c4cnc([C@@H]5CCCN5C(=O)[C@H](NC(=O)NCC)c5ccccc5)[nH]4)cc3)cc2)[nH]1)c1ccccc1` [Example 24-4c, N′,N′′′-(4,4′-biphenyldiylbis(1H-imidazole-5,2-diyl(2S)-2,1-pyrrolidinediyl((1R)-2-oxo-1-phenyl-2,1-ethanediyl)))bis(1-ethylurea)] the EC50 was 0.001 to 0.999 nM.
`CC[C@H](NC(=O)OC)C(=O)N1CC2(CC2)C[C@H]1c1nc(-c2ccc(-c3ccc(-c4c[nH]c([C@@H]5CC6(CC6)CN5C(=O)[C@H](CC)NC(=O)OC)n4)cc3)cc2)c[nH]1` [Example M148, dimethyl (4,4′-biphenyldiylbis(1H-imidazole-4,2-diyl(6S)-5-azaspiro[2.4]heptane-6,5-diyl((2S)-1-oxo-1,2-butanediyl)))biscarbamate] gave an EC50 of 0.001 to 0.999 nM.
`CNC(=O)N[C@H](C(=O)N1CCC[C@H]1c1nc(-c2ccc(-c3ccc(-c4c[nH]c([C@@H]5CCCN5C(=O)[C@@H](NC(=O)NC)C(C)C)n4)cc3)cc2)c[nH]1)C(C)C` [Example F63, 1-methyl-3-((1S)-2-methyl-1-(((2S)-2-(4-(4′-(2-((2S)-1-(N-(methylcarbamoyl)-L-valyl)-2-pyrrolidinyl)-1H-imidazol-4-yl)-4-biphenylyl)-1H-imidazol-2-yl)-1-pyrrolidinyl)carbonyl)propyl)urea] was tested, and the EC50 was 0.001 to 0.999 nM.
With `COC(=O)N[C@@H](C(=O)N1CCC[C@H]1c1ncc(-c2ccc(-c3ccc(-c4cnc([C@@H]5CCCN5C(=O)[C@@H](c5ccccc5)N(C)C)[nH]4)cn3)cc2)[nH]1)c1ccccc1` [Example 140, methyl ((1R)-2-((2S)-2-(5-(4-(5-(2-((2S)-1-((2R)-2-(dimethylamino)-2-phenylacetyl)-2-pyrrolidinyl)-1H-imidazol-5-yl)-2-pyridinyl)phenyl)-1H-imidazol-2-yl)-1-pyrrolidinyl)-2-oxo-1-phenylethyl)carbamate] the EC50 was 0.001 to 0.999 nM.
Work on `COC(=O)N[C@@H](C(=O)N1CCC[C@H]1c1ncc(-c2ccc(-c3ccc(-c4cnc([C@@H]5CCCN5C(=O)Cc5ccc(C)cc5)[nH]4)cc3)cc2)[nH]1)c1ccccc1` [Example 84-70, methyl ((1R)-2-((2S)-2-(5-(4′-(2-((2S)-1-((4-methylphenyl)acetyl)-2-pyrrolidinyl)-1H-imidazol-5-yl)-4-biphenylyl)-1H-imidazol-2-yl)-1-pyrrolidinyl)-2-oxo-1-phenylethyl)carbamate] yielded an EC50 of 1 to 99 nM.

— patent publication US8574563B2 (Bristol-Myers Squibb Company, priority 2006, dated 2013)
